Experimental data from ChEMBL document CHEMBL1201862, “PubChem BioAssay data set” (2004).
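Exposure lasted 48 hours, with cells grown in 96-well plates and compounds tested at five concentrations. At the GI50, growth is halved.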 Calls of active or inactive are those of the source. No stated cut-off is given here; in the data, active = GI50 up to about 1.1 µM and inactive = higher.

Key:
Experiment in all cases: NCI-60 cell line screen, 48 h
OVCAR-4 = tested on: OVCAR-4
SK-OV-3 = tested on: SK-OV-3
SN12C = tested on: SN12C
CAKI-1 = tested on: CAKI-1
M19-MEL = tested on: M19-MEL
SK-MEL-2 = tested on: SK-MEL-2
OVCAR-5 = tested on: OVCAR-5
M14 = tested on: M14
COLO 205 = tested on: COLO 205
ACHN = tested on: ACHN
MOLT-4 = tested on: MOLT-4
OVCAR-8 = tested on: OVCAR-8
RXF 393 = tested on: RXF 393
UO-31 = tested on: UO-31
KM12 = tested on: KM12
U-251 = tested on: U-251
SR = tested on: SR

Measured: GI50

CC(=O)O[C@H]1CC[C@@]2(C)C(=C/C(=N\[N+](=O)[O-])[C@H]3C4CCC([C@H](C)CCCC(C)C)[C@@]4(C)CCC32)C1 (some centres undefined)
inactive: OVCAR-4 > 100 µM | SK-OV-3 > 100 µM | SN12C > 100 µM | CAKI-1 > 100 µM | M19-MEL > 100 µM | SK-MEL-2 > 100 µM | OVCAR-5 > 100 µM | M14 > 100 µM | COLO 205 > 100 µM | ACHN > 100 µM | MOLT-4 > 100 µM | OVCAR-8 > 100 µM | RXF 393 > 100 µM | UO-31 > 100 µM

CCCCc1c2c(nc3c1CCC/C3=C\c1ccccc1)/C(=C/c1ccccc1)CCC2
inactive: SK-OV-3 > 100 µM | SN12C > 100 µM | M19-MEL > 100 µM | M14 > 100 µM | KM12 > 100 µM | COLO 205 > 100 µM | U-251 > 100 µM | ACHN > 100 µM | MOLT-4 > 100 µM | OVCAR-8 > 100 µM | UO-31 > 100 µM | SR > 100 µM

C#CCN(C(=O)C(F)(F)F)c1ccc(C(=O)c2ccc(N(CC#C)C(=O)C(F)(F)F)cc2)cc1
inactive: OVCAR-4 28.7 µM | SN12C 34.9 µM | M19-MEL 35.5 µM | SK-MEL-2 33.7 µM | OVCAR-5 49.9 µM | M14 33.2 µM | KM12 32.2 µM | COLO 205 30.8 µM | U-251 31.6 µM | ACHN 32.7 µM | MOLT-4 15.1 µM | OVCAR-8 36.1 µM | RXF 393 35.3 µM | UO-31 59.7 µM

COc1ccc2c(c1)c1c3n2CCNN=C3CCC1
inactive: OVCAR-4 > 100 µM | SK-OV-3 > 75.2 µM | SN12C > 61.7 µM | CAKI-1 24.8 µM | M19-MEL > 100 µM | SK-MEL-2 > 100 µM | OVCAR-5 > 57.4 µM | M14 > 100 µM | KM12 > 100 µM | COLO 205 > 91 µM | U-251 > 48.5 µM | ACHN 72.4 µM | MOLT-4 > 37.5 µM | OVCAR-8 > 81.1 µM | UO-31 > 43.7 µM | SR 10.4 µM

O=C(CC(=O)Nc1ccc(Cl)cc1)NNCC(=O)Nc1nc(-c2ccccc2)cs1
inactive: OVCAR-4 > 100 µM | SK-OV-3 > 100 µM | SN12C > 100 µM | M19-MEL > 100 µM | M14 > 100 µM | KM12 > 100 µM | COLO 205 > 100 µM | U-251 > 100 µM | MOLT-4 > 100 µM | OVCAR-8 > 100 µM | RXF 393 > 100 µM

CC(=O)NC(CC(C)C)C(=O)NC(Cc1ccccc1)C(=S)N1CCCC1 (centres undefined)
inactive: OVCAR-4 > 100 µM | SK-OV-3 > 100 µM | SN12C > 100 µM | CAKI-1 > 100 µM | M19-MEL > 100 µM | SK-MEL-2 > 100 µM | OVCAR-5 > 100 µM | M14 > 100 µM | KM12 > 100 µM | COLO 205 > 100 µM | U-251 > 100 µM | ACHN > 100 µM | MOLT-4 > 100 µM | OVCAR-8 > 100 µM | RXF 393 > 100 µM | UO-31 > 100 µM

COC(=O)/C(C)=C(/CCC1(C)OCCO1)O[Si](C)(C)C
inactive: OVCAR-4 > 100 µM | SK-OV-3 > 100 µM | SN12C > 100 µM | CAKI-1 > 100 µM | M19-MEL > 100 µM | SK-MEL-2 > 100 µM | OVCAR-5 > 100 µM | M14 > 100 µM | KM12 > 100 µM | COLO 205 > 100 µM | U-251 > 100 µM | ACHN > 100 µM | MOLT-4 > 100 µM | OVCAR-8 > 100 µM | RXF 393 > 100 µM | UO-31 95.3 µM
